Results published in PubChem BioAssay (NCI).
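Protocol summary: plate cells (96-well), add compound at 5 concentrations, incubate 48 h, interpolate endpoints linearly. GI50: concentration for 50% inhibition of growth. TGI: concentration producing complete growth inhibition.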

How the values were obtained:
Experiment in all cases: growth of human tumour cells (NCI), 48 h; in the data active means GI50 below about 0.43 µM; inactive means the rest
[1] = tested on: MCF7 breast
[2] = tested on: A498 renal
[3] = tested on: UO-31 renal
[4] = tested on: SNB-75 CNS
[5] = tested on: T-47D breast
[6] = tested on: HL-60(TB) leukemia
[7] = tested on: DU-145 prostate
[8] = tested on: HT29 colon
[9] = tested on: HCT-15 colon
[10] = tested on: HCC-2998 colon
[11] = tested on: RXF 393 renal
[12] = tested on: RPMI-8226 leukemia
[13] = tested on: KM12 colon
[14] = tested on: NCI-H23 lung
[15] = tested on: OVCAR-4 ovarian
[16] = tested on: SK-MEL-5 melanoma
[17] = tested on: SF-295 CNS
[18] = tested on: OVCAR-3 ovarian
[19] = tested on: MDA-MB-435
[20] = tested on: BT-549 breast
[21] = tested on: A549 NSCLC
[22] = tested on: UACC-62 melanoma
[23] = tested on: TK-10 renal
[24] = tested on: HCT-116 colon
[25] = tested on: HOP-62 NSCLC
[26] = tested on: NCI-H226 lung
[27] = tested on: SW-620 colon
[28] = tested on: MDA-MB-231 breast
[29] = tested on: OVCAR-8 ovarian
[30] = tested on: PC-3 prostate
[31] = tested on: NCI/ADR-RES ovarian
[32] = tested on: OVCAR-5 ovarian
[33] = tested on: COLO 205 colon
[34] = tested on: K-562 leukemia
[35] = tested on: SNB-19 CNS
[36] = tested on: NCI-H460 lung
[37] = tested on: CAKI-1 renal
[38] = tested on: SN12C renal
[39] = tested on: CCRF-CEM leukemia
[40] = tested on: M14 melanoma
[41] = tested on: SK-MEL-2 melanoma
[42] = tested on: SK-MEL-28 melanoma
[43] = tested on: IGROV1 ovarian
[44] = tested on: HOP-92 NSCLC
[45] = tested on: SF-268 CNS
[46] = tested on: UACC-257 melanoma
[47] = tested on: MOLT-4 leukemia
[48] = tested on: U251 CNS
[49] = tested on: HS 578T breast
[50] = tested on: SF-539 CNS
[51] = tested on: SK-OV-3 ovarian
[52] = tested on: ACHN renal
[53] = tested on: LOX IMVI melanoma
[54] = tested on: 786-0 renal
[55] = tested on: EKVX NSCLC
[56] = tested on: MALME-3M melanoma
[57] = tested on: NCI-H522 lung
[58] = tested on: SR leukemia

CCCCc1ccc(C(N)=O)nc1
inactive: GI50 [1] > 100 µM | GI50 [2] 48.1 µM | GI50 [3] > 100 µM | GI50 [4] > 100 µM | GI50 [5] > 100 µM | GI50 [6] > 100 µM | GI50 [7] > 100 µM | GI50 [8] > 100 µM | GI50 [9] > 100 µM | GI50 [10] > 100 µM | GI50 [11] > 100 µM | GI50 [12] > 100 µM | GI50 [13] > 100 µM | GI50 [14] > 100 µM | GI50 [15] > 100 µM | GI50 [16] > 100 µM | GI50 [17] > 100 µM | GI50 [18] > 100 µM | GI50 [19] > 100 µM | GI50 [20] > 100 µM | GI50 [21] > 100 µM | GI50 [22] > 100 µM | GI50 [23] > 100 µM | GI50 [24] > 100 µM | GI50 [25] > 100 µM | GI50 [26] > 100 µM | GI50 [27] > 100 µM | GI50 [28] > 100 µM | GI50 [29] > 100 µM | GI50 [30] > 100 µM | GI50 [31] > 100 µM | GI50 [32] > 100 µM | GI50 [33] > 100 µM | GI50 [34] > 100 µM | GI50 [35] > 100 µM | GI50 [36] > 100 µM | GI50 [37] > 100 µM | GI50 [38] > 100 µM | GI50 [39] > 100 µM | GI50 [40] > 100 µM | GI50 [41] > 100 µM | GI50 [42] > 100 µM | GI50 [43] > 100 µM | GI50 [44] > 100 µM | GI50 [45] > 100 µM | GI50 [46] > 100 µM | GI50 [47] > 100 µM | GI50 [48] > 100 µM | GI50 [49] 20 µM | GI50 [50] > 100 µM | GI50 [51] > 100 µM | GI50 [52] > 100 µM | GI50 [53] > 100 µM | GI50 [54] > 100 µM | GI50 [55] 48.9 µM | GI50 [56] > 100 µM | GI50 [57] > 100 µM | GI50 [58] > 100 µM
> 100 µM: TGI [1] | TGI [2] | TGI [3] | TGI [4] | TGI [5] | TGI [6] | TGI [7] | TGI [8] | TGI [9] | TGI [10] | TGI [11] | TGI [12] | TGI [13] | TGI [14] | TGI [15] | TGI [16] | TGI [17] | TGI [18] | TGI [19] | TGI [20] | TGI [21] | TGI [22] | TGI [23] | TGI [24] | TGI [25] | TGI [26] | TGI [27] | TGI [28] | TGI [29] | TGI [30] | TGI [31] | TGI [32] | TGI [33] | TGI [34] | TGI [35] | TGI [36] | TGI [37] | TGI [38] | TGI [39] | TGI [40] | TGI [41] | TGI [42] | TGI [43] | TGI [44] | TGI [45] | TGI [46] | TGI [47] | TGI [48] | TGI [49] | TGI [50] | TGI [51] | TGI [52] | TGI [53] | TGI [54] | TGI [55] | TGI [56] | TGI [57] | TGI [58]
